# Data: paper PMC8201735 (BMC Pharmacology & Toxicology, 2021)
# Where “and” joins values, the source holds several entries; their conditions need not be identical. Equal entries are not always repeated.
# What was measured:
# subjects with T2DM [1] = assay: Adverse event monitoring, RE co-administered with metformin for 13 days; type: in vivo, human; conditions: for Any AE / Tolerability of co-administration with metformin: 13 days; for Tolerability of co-administration with metformin: RE 500 or 750 mg BID + metformin >=2000 mg/day
# Description: The study was comprised of three phases; run-in, randomization, and treatment. […] In treatment phase the patients were considered in two cohorts. […] The adverse events monitoring included recording of any adverse event (AE) and serious adverse event (SAE) reported or observed during the entire study and follow-up period. All the subjects were counseled to inform study staff of any AEs that occurred during the study. Any abnormal laboratory findings (e.g., clinical chemistry, hematology, and urinalysis) or other abnormal assessments (e.g., ECGs, vital signs, physical examination) that were judged by the investigator as clinically significant were recorded as AEs or SAE.
# subjects with T2DM [2] = assay: Surveillance for lactic acidosis: fasting plasma lactic acid concentration; type: in vivo, human
# Protocol: The samples for acidosis analysis were collected at screening (following an overnight fast and prior to morning dose), once during the run-in phase, at baseline (Day- 1), mornings (prior to first dose and breakfast) of Days 1, 2, 3, and 4 (inpatient) and Days 6, 8, and 10 (outpatient) and Days 13 and 14 (inpatient). Subjects were not allowed to do rigorous exercise or physical labor during the treatment phase of the study and instructed to limit exercise 12 h before sampling.
# (§1) Descriptive statistics were used to summarize baseline demographics, safety data, and pharmacokinetic parameters. Geometric mean and % CVb (between-subject coefficient of variation) were calculated for all pharmacokinetic parameters except tmax. Comparisons of placebo with each active dose of RE were assessed in terms of change from baseline in fasting plasma lactate acid using repeated measures analysis of covariance model. The model included terms for baseline measurement, visit, treatment and visit-by-treatment interaction. The same model was applied to change from baseline in weighted means of day-time, night-time and 0–24 h of blood pressures. Within group treatment comparison was performed using mixed model on log transformed Cmax and AUC (0-last).
# [3] = Plasma pharmacokinetics of metformin with and without RE; type: in vivo, human; conditions: RE 500 mg or 750 mg BID with metformin
# Protocol: as §1, with “PK analysis was conducted by […] (Chapel Hill, NC, USA), under the direction of Clinical Pharmacokinetics/Modelling and Simulation, GSK using the non-compartmental analysis Model 200 (for extra vascular administration) of WinNonlin Professional Edition version 4.1 (Pharsight Corporation, Mountain View, CA). […] Descriptive” for “Descriptive”, “0-24” for “0–24”
# subjects with T2DM [4] = assay: Oral glucose tolerance test (75 g): weighted mean plasma glucose and insulin; type: in vivo, human
# Protocol: Oral glucose tolerance testing was performed on Day 1 and Day 13 using a 75 g oral glucose solution. Blood samples for the measurement of insulin and glucose were taken immediately before drug dosing (within 5 min of drug dosing), and at 30 min, 1, 1.5, 2, 3, 4, and 6 h following drug dosing.
# Body weight = type: in vivo, human; conditions: for Change from baseline in body weight, Mean (SD): Day 2
# Protocol: Body weight measurement was performed at screening and during inpatient Days- 1, 2, 4, 8, 13, and 14.
# subjects with T2DM [5] = assay: Oral glucose tolerance test (75 g): weighted mean plasma glucose and insulin; type: in vivo, human; conditions: Day -1 (baseline)
# subjects with T2DM [6] = conditions: RE 500 mg BID and metformin 500 mg BID for 3 days; cited from earlier work
# [7] = set-up: method as in PMID 25934577; conditions: repeat dosing PK; cited from earlier work
# T2DM patients = test system: T2DM patients; set-up: method as in PMID 32162274; conditions: T2DM patients on daily metformin therapy (> 1500 mg) over 24 weeks; cited from earlier work
# [8] = RE 500 mg BID + metformin, N = 16
# [9] = RE 750 mg BID + metformin, N = 17
# [10] = Study Day 2, RE 750 mg BID + metformin
# [11] = Study Day 6, RE 750 mg BID + metformin
smiles,measurement,setting,value
"CCOC(=O)OC[C@H]1O[C@@H](Oc2nn(C(C)C)c(C)c2Cc2ccc(OC(C)C)cc2)[C@H](O)[C@@H](O)[C@@H]1O [RE, remogliflozin etabonate]",Any AE,"subjects with T2DM [1]; RE 500 mg BID + metformin >=2000 mg/day, N = 16",6 (38%) N(%)
same,Dizziness,subjects with T2DM [1]; [8],1 (6%) N(%)
same,Nausea,subjects with T2DM [1]; [8],1 (6%) N(%)
same,Thirst,subjects with T2DM [1]; [8],0 N(%)
same,Post-therapy AEs,subjects with T2DM [1]; RE 750 mg + metformin group,no post-therapy AEs
same,Subjects with hypoglycemic laboratory events,"subjects with T2DM [1]; RE 750 mg + metformin group, moderate, resolved with sweets",one
same,Any AE,"subjects with T2DM [1]; RE 750 mg BID + metformin >=2000 mg/day, N = 17",4 (24%) N(%)
same,Diarrhoea,subjects with T2DM [1]; [9],1 (6%) N(%)
same,Dizziness,subjects with T2DM [1]; [9],1 (6%) N(%)
same,Dyslipidemia,subjects with T2DM [1]; [9],0 N(%)
same,Nausea,subjects with T2DM [1]; [9],1 (6%) N(%)
same,Supraventricular tachycardia,subjects with T2DM [1]; [9],0 N(%)
same,Urinary tract infection,subjects with T2DM [1]; [9],0 N(%)
same,Vomiting,subjects with T2DM [1]; [9],1 (6%) N(%)
same,Tolerability of co-administration with metformin,subjects with T2DM [1],generally well tolerated
same,Tolerability of co-administration with metformin,subjects with T2DM [1]; listed as remogliflozin etabonate,well tolerated
same,"Fasting plasma lactic acid, maximum on-therapy absolute values, Mean (SD)",subjects with T2DM [2]; RE 500 mg BID + metformin,1.220 (0.2684) mmol/L
same,"Fasting plasma lactic acid, maximum on-therapy change from baseline, Mean (SD)",subjects with T2DM [2]; RE 500 mg BID + metformin,0.234 (0.3717) mmol/L
same,"Fasting plasma lactic acid, maximum on-therapy absolute values, Mean (SD)",subjects with T2DM [2]; RE 750 mg BID + metformin,1.508 (0.4389) mmol/L
same,"Fasting plasma lactic acid, maximum on-therapy change from baseline, Mean (SD)",subjects with T2DM [2]; RE 750 mg BID + metformin,0.249 (0.5934) mmol/L
same,"Fasting plasma lactic acid change from baseline, Mean (SD)","subjects with T2DM [2]; Study Day 2, RE 500 mg BID + metformin",−0.07 (0.248) mmol/L
same,"Fasting plasma lactic acid change from baseline, Difference vs. placebo (95% CI), ANCOVA",subjects with T2DM [2]; [10],"−0.246(− 0.445, − 0.047) mmol/L"
same,"Fasting plasma lactic acid change from baseline, Mean (SD)",subjects with T2DM [2]; [10],−0.17 (0.419) mmol/L
same,"Fasting plasma lactic acid change from baseline, Difference vs. placebo (95% CI), ANCOVA","subjects with T2DM [2]; Study Day 6, RE 500 mg BID + metformin","−0.380 (− 0.603, − 0.157) mmol/L"
same,"Fasting plasma lactic acid change from baseline, Mean (SD)","subjects with T2DM [2]; Study Day 6, RE 500 mg BID + metformin, n = 15",−0.26 (0.310) mmol/L
same,"Fasting plasma lactic acid change from baseline, Difference vs. placebo (95% CI), ANCOVA",subjects with T2DM [2]; [11],"−0.254(− 0.472, − 0.036) mmol/L"
same,"Fasting plasma lactic acid change from baseline, Mean (SD)",subjects with T2DM [2]; [11],−0.26 (0.538) mmol/L
same,"Fasting plasma lactic acid change from baseline, Difference vs. placebo (95% CI), ANCOVA","subjects with T2DM [2]; Study Day 13, RE 500 mg BID + metformin","−0.191 (− 0.414, 0.031) mmol/L"
same,"Fasting plasma lactic acid change from baseline, Mean (SD)","subjects with T2DM [2]; Study Day 13, RE 500 mg BID + metformin, n = 15",−0.15 (0.485) mmol/L
same,"Fasting plasma lactic acid change from baseline, Difference vs. placebo (95% CI), ANCOVA","subjects with T2DM [2]; Study Day 13, RE 750 mg BID + metformin","−0.255 (− 0.475, − 0.034) mmol/L"
same,"Fasting plasma lactic acid change from baseline, Mean (SD)","subjects with T2DM [2]; Study Day 13, RE 750 mg BID + metformin, n = 16",−0.33 (0.398) mmol/L
same,Subjects with lactic acid greater than the upper limits of normal (ULN) at any time,"subjects with T2DM [2]; receiving RE, not sustained, minimally above ULN",one
same,Effect of RE on the pharmacokinetics of metformin,[3],no effect
same,"Weighted mean plasma glucose following OGTT, Mean (SD)","subjects with T2DM [4]; Day 1 (baseline), RE 500 mg + Metformin",13 mmol/L and 13.03 (1.929) mmol/L
same,"Weighted mean plasma glucose following OGTT, Mean (SD)","subjects with T2DM [4]; Day 1 (baseline), RE 750 mg + Metformin",11 mmol/L and 11.49 (3.536) mmol/L
same,"Weighted mean plasma glucose following OGTT, Mean (SD)","subjects with T2DM [4]; Day 13, RE 500 mg + Metformin",9 mmol/L and 9.45 (1.502) mmol/L
same,"Weighted mean plasma insulin following OGTT, Mean (SD)","subjects with T2DM [4]; Day 13, RE 500 mg + Metformin",142.15 (67.626) pmol/L
same,"Weighted mean plasma glucose following OGTT, Mean (SD)","subjects with T2DM [4]; Day 13, RE 750 mg + Metformin",8 mmol/L and 8.84 (1.656) mmol/L
same,"Weighted mean plasma insulin following OGTT, Mean (SD)","subjects with T2DM [4]; Day 13, RE 750 mg + Metformin",171.57 (74.178) pmol/L
same,"Weighted mean plasma glucose, change from baseline, Mean (SD)",subjects with T2DM [4]; RE 500 mg + Metformin,−3.50 (2.012) mmol/L
same,"Weighted mean plasma insulin, change from baseline, Mean (SD)",subjects with T2DM [4]; RE 500 mg + Metformin,−44.80 (52.746) pmol/L
same,"Weighted mean plasma glucose, change from baseline, Mean (SD)",subjects with T2DM [4]; RE 750 mg + Metformin,−2.77 (2.262) mmol/L
same,"Weighted mean plasma insulin, change from baseline, Mean (SD)",subjects with T2DM [4]; RE 750 mg + Metformin,−18.95 (47.360) pmol/L
same,"Change from baseline in body weight, Mean (SD)",Body weight; RE 500 mg + Metformin,−1.03 (0.994) kg
same,"Change from baseline in body weight, Mean (SD)",Body weight; RE 750 mg + Metformin,−1.04 (1.210) kg
same,Additional body weight lost in the RE groups compared to metformin alone,"Body weight; by Day 14, RE 500 or 750 mg BID + metformin vs placebo + metformin",~1 kg
same,"Weighted mean plasma insulin following OGTT, Mean (SD)",subjects with T2DM [5]; RE 500 mg + Metformin,190.96 (100.420) pmol/L
same,"Weighted mean plasma insulin following OGTT, Mean (SD)",subjects with T2DM [5]; RE 750 mg + Metformin,191.52 (83.045) pmol/L
same,Effect of RE on the steady-state plasma profiles of metformin,subjects with T2DM [6],no effect
same,Tolerability of concomitant administration,subjects with T2DM [6],well tolerated
same,Increase in AUC on repeat dosing,[7],10%
same,Increase in t1/2 on repeat dosing,[7],10%
same,Glycemic efficacy,T2DM patients,comparable to dapagliflozin
